We go through three compounds from patent publication US8865747B2, “Pioglitazone for use in the treatment of adrenoleukodystrophy” (Fundació Institut D'Investigació Biomèdica de Bellvitge …, priority 2012, dated 2014).

Series [1] deals with Abcd1-null mice. In words: Western blot of mitochondrial and antioxidant proteins in spinal cord. In kind it is in vivo, mouse. Particulars: Abcd1− mice fed 2 months with pioglitazone. From the text: The following antibodies were used for Western Blots: anti-mouse NADH-ubiquinol oxidoreductase (NDUFB8: complex I): dilution 1/2000 (Molecular Probes); anti-mouse anti-Porin 31HL (VDAC or Voltage Dependant Anion Channel): dilution 1/1000 (Calbiochem); anti-rabbit DNP: dilution 1/100 (Invitrogen); anti-mouse PGC-1a: dilution 1/1000 (ST1202, Calbiochem); anti-rabbit SIRT1 for mouse: dilution 1/500 (12193, Abcam); anti-rabbit SIRT1 for human: dilution 1/500 (32441, Abcam) and anti-mouse γ-tubulin: dilution 1/5000 (T6557, clone GTU-88, Sigma). Goat anti-rabbit IgG linked to horseradish peroxidase, dilution: 1/15000 (P0448, Dako, Glostrup, Denmark) and Goat anti-mouse IgG linked to horseradish peroxidase, dilution: 1/15000 (G21040, Invitrogen) have been used as secondary antibodies.
(§1) Pioglitazone (Actos®) was mixed into AIN-76A chow from Dyets (Bethlehem, Pa.) at 0.012% w/w, corresponding to a dose of 9 mg/kg/day per mice [Yan Q. et al., J. Neurosci. 2003, 23, 7504-7509]. […] .
Tissues were removed from euthanized mice and flash-frozen on liquid nitrogen. Frozen tissues were homogenized in RIPA buffer boiled for 5 min and centrifuged. We measured protein concentration of the supernatant with a BCA (bicinchoninic acid) Protein Assay Kit (Pierce). 10 to 100 μg were loaded onto each lane of 10% polyacrylamide gels for 60 min at […]. Resolved proteins were transferred to nitrocellulose. Proteins were detected with ECL western blotting analysis system (Amersham Biosciences).
On the technique in general: A western blot detects proteins with antibodies after separation by electrophoresis.

In series [2] the test system is Abcd1-null mice. Put plainly: Relative gene expression by quantitative RT-PCR in spinal cord. Conditions: Abcd1− mice fed 2 months with pioglitazone, 12 months of age, FIG. 12. In kind it is in vivo, mouse. Here is the method: as §1
First tissues were lysed using Trizol reagent (Invitrogen), then total RNA was extracted using RNeasy Kit (Qiagen). Lysis and extraction were performed according to the manufacturer's instructions. Total DNA from tissues was extracted using Gentra Puregene Tissue Kit (Qiagen) according to the manufacturer's instructions.
[…] of RNA was transcribed into cDNA using Superscript II reverse transcription reagents in a final volume of 25 μl (Invitrogen). A TaqMan real time PCR was performed within the ABI PRISM 7300HT sequence detection system using the TaqMan Universal PCR master mix and the standardized primers for mouse SIRT1 (Mm00490758) PGC-1α (Mm00447183), PGC-1β (Mm01258518), ERRα (Mm00433143), NRF-1 (Mm00447996), TFAM (Mm00447485), TFB1M (Mm00524825) and TFB2M (Mm01620397). To measure gene expression and mtDNA abundance 0.1 to 0.2 μl of cDNA and 100 ng of DNA were respectively used.
To quantify mouse and human mtDNA content, two probes (mouse cytochrome b (cytb) (Gene ID: 17711) and human cytochrome c […] subunit II (COXII) (Gene ID: 4513) were respectively designed (Custom TaqMan Gene Expression Assays; Applied Biosystems). The sequences for mouse cytb primers were: […] (SEQ ID NO: 1) (forward) and […] (SEQ ID NO: 2) (reverse) and the FAM-labeled probe was TTGCAACTATAGCAACAG (SEQ ID NO: 3). The sequences for human COXII primers were: […] (SEQ ID NO: 4) (forward) and […] (SEQ ID NO: 5) (reverse) and the FAM-labeled probe was AAATCTGTGGAGCAAACC (SEQ ID NO: 6). Quantification of mtDNA was referred to nuclear DNA as determined by the amplification of the intronless nuclear gene C/EBPα. (Mouse and human CEBPα are respectively: Mm00514283, Hs00269972.). Each sample was run in duplicate, and the mean value of the duplicate was used to calculate the mRNA expression of the genes of interest which were normalized to that of the reference control (18S, Hs99999901) using the comparative (2^−ΔCt) method, according to the manufacturer's instructions.

Series [3] concerns SIRT1. In words: SIRT1 immunoprecipitation and carbonyl (DNPH) measurement in spinal cord. In kind it is in vivo, mouse. Particulars: Abcd1− mice fed 2 months with pioglitazone, 12 months of age, FIG. 13. The protocol:
as §1
Since the specific carbonylated SIRT1 antibody is not available, SIRT1 has been immunoprecipitated to measure carbonyl levels, as earlier described [Caito S. et al., Faseb J. 2010, 24, 3145-3159]. Protein (200 μg) extracted from whole spinal cord in a final volume of 400 μl RIPA buffer was incubated for 1 h with SIRT1 antibody [12193, (Abcam)] ((Abcam, 12193), dilution 1:80). Protein A sepharose (Amersham) was suspended in PBS for 1 h then blocked in BSA (1%) for 1 h. Protein A sepharose (50 μl ) was added to each sample and left overnight at 4° C. on a rotator. The samples are then centrifuged at 13,000 rpm at 4 ° C. for 5 min. […] Neural. 2011, 70, 84-92].

Series [4] relates to SIRT1. Put plainly: SIRT1 fluorometric activity assay on spinal cord protein. In kind it is in vivo, mouse. Particulars: Abcd1− mice fed 2 months with pioglitazone, 12 months of age, FIG. 13. Here is the method:
as §1
We used a SIRT1 fluorometric assay kit (BIOMOL) based on the generation of a fluorophore via the NADtdependent deacetylation by SIRT1 of its substrate, which is a peptide comprising amino acids 379-382 of human p53 (Arg-His-Lys-Lys(Acetyl) (SEQ ID NO: 7) [Howitz K. T. et al., Nature 2003, 425, 191-196; and Vaziri H. et al., Cell 2001, 107, 149-159]. The assay's fluorescence signal is generated in proportion to the amount of Lys-382 deacetylation [Chabi B. et al., J. Appl. Physiol. 2009, 107, 1730-1735]. Briefly, 25 μg of total protein were incubated with Fluor de Lys-Sirt1 substrate (100 μM) and NAD^+ (100 μM) at 37° C. for 30 min in a final volume of 50 μl. The reaction was stopped by the addition of 50 μl of developer reagent and nicotinamide (2 mM) and the fluorescence was subsequently monitored for 30 min at 360 nm (excitation) and 460 nm (emission).

In series [5] the test system is Abcd1-null mice. Put plainly: ATP levels, NAD-NADH determination and pyruvate kinase activity in spinal cord. Conditions: Abcd1− mice fed 2 months with pioglitazone, 12 months of age. In kind it is in vivo, mouse. Here is the method:
as §1
To determine ATP levels, mice were sacrificed by cervical dislocation and spinal cords immediately frozen in liquid nitrogen and stored at −80° C. ATP was extracted with cold perchloric acid (10%) from 10 mg of spinal cord, neutralized with KOH and centrifugated [Khan H. A. et al., J. Biosci. 2003, 28, 379-382]. Then, ATP concentrations were quantified in triplicate per animal using the ATPlite 1 step (PerkinElmer) according to the manufacturer's protocol. Data were normalized to mg of proteins. All assays were performed in triplicate.
NAD^+ and NADH were quantified by the NAD cycling assay and pyruvate kinase activity was determined by a spectrophotometrical method as previously described [Galino J. et al., Antiox. Redox Signal 2011, 15, 2095-2107].

Series [6] relates to Abcd1-null mice. In words: GC/MS measurement of oxidative lesion markers in spinal cord proteins. In kind it is in vivo, mouse. Conditions: Abcd1− mice fed 2 months with pioglitazone, FIG. 15a. Here is the method: as §1
Series [7] in a line: Weight and food intake during dietary treatment. The class given is in vivo, mouse. Conditions: both protocols of treatment (Abcd1-null 2 months; DKO 4 months), 9 mg/kg/day in chow. The protocol:
Pioglitazone (Actos®) was mixed into AIN-76A chow from Dyets (Bethlehem, Pa.) at 0.012% w/w, corresponding to a dose of 9 mg/kg/day per mice [Yan Q. et al., J. Neurosci. 2003, 23, 7504-7509]. […] Neurol. […] Mol. Genet. […] Mol. Genet. […] Mol. Genet. 2005, 14, 3565-3577].

The test system of series [8] is Abcd1−/Abcd2−/− (DKO) mice. In words: Horizontal bar cross test. Conditions: after 2 months of treatment, FIG. 19.
Description: We set up a preclinical trial to assess the effect of pioglitazone on the progression of clinical signs using DKO null mice as the model Animals were randomly assigned to one of the following groups.
The bar cross test was carried out using a wooden bar of 100 cm in length and 2 cm in width (diameter). This bar is just wide enough for the mice to stand on with their hind feet hanging over the edge such that any slight lateral misstep will result in a slip. […] Bar cross test was performed basically as previously described [Lopez-Erauskin J. et al., Ann.
Mice were evaluated by the treadmill test and the bar-cross at the start and re-scored after 2 (i.e 15 months of age), and 4 months (i.e. 17 months of age) of the treatment.
In series [9] the test system is Abcd1−/Abcd2−/− (DKO) mice. In words: Immunohistochemistry / histology of dorsal spinal cord (axonal degeneration). Particulars: pioglitazone 4 months (13 to 17 months of age).
Excerpt: We set up a preclinical trial to assess the effect of pioglitazone on the progression of clinical signs using DKO null mice as the model Animals were randomly assigned to one of the following groups. […] We treated animals for 4 months starting at 13 months of age in order to start treatment at the onset of clinical signs [Lopez-Erauskin J. et al., Ann.
Spinal cords were harvested from 18 month-old wild type (WT), Abcd1^−/Abcd2^−/− (DKO) and Abcd1^−/Abcd2^−/− fed with pioglitazone for 4 months (DKO+PIO), after perfusion with PFA 4%, basically as described [Lopez-Erauskin J. et al., Ann. […] Spinal cords were embedded in paraffin and serial sections, 5 μm thick, were cut in a transversal or longitudinal plane.
The number of abnormal specific profiles was counted at every 10 sections for each particular stain. At least three sections corresponding to the dorsal columns of the spinal cord were analysed per animal and per stain. Results were expressed as mean values±standard deviations.
Immunohistochemistry experiments were performed.
For series [10] the following is noted: Yamada T. et al. 2000; cited from earlier work.
In the next series the test system is X-ALD patients. Conditions: recent study in X-ALD patients; cited from earlier work.
Setting [11] is: spinal cord, 12 months of age, FIG. 11.

SMILES strings stand for the structures. Entries after “also recorded” stand apart in the source; their conditions may differ.

Turning to `CCc1ccc(CCOc2ccc(CC3SC(=O)NC3=O)cc2)nc1` (racemic) [pioglitazone, 5-(4-[2-(5-ethylpyridin-2-yl)ethoxy]benzyl)thiazolidine-2,4-dione], in the series with Abcd1-null mice [1] (FIG. 15b), the GPX1 protein level result was “normalized”. In the series on Abcd1-null mice [1] (setting [11]), the NDUFB8 protein level result is “increased” and the VDAC protein level result was “increased”. For the same compound, in the series with Abcd1-null mice [2], the “NRF1 mRNA” value is listed as “increased”, the SIRT1 expression entry is on record as “no effect”, the “TFAM mRNA” value is recorded as “increased” and the “expression of PGC-1α mRNA” value was “increased”. For the same compound, in the series on SIRT1 [3], the “levels of carbonylation on SIRT1 protein (SIRT1 oxidation)” value was “lowered; also recorded: normalized”. The SIRT1 activity entry with SIRT1 [4] is reported as “rescued; also recorded: normalized”. Besides, in the series with Abcd1-null mice [5] (FIG. 14a), the ATP levels result is given as “normalised”. Besides, in the series on Abcd1-null mice [5] (FIG. 14b), the NADH levels entry is listed as “normalised”. Besides, in the series on Abcd1-null mice [5] (FIG. 14c), the “activity of pyruvate kinase” value is given as “normalised”. For the same compound, in the series on Abcd1-null mice [6], the AASA content result is reported as “normalized”, the “CEL (glycoxidative) content” value was “normalized”, the GSA content entry is listed as “normalized” and the “MDAL (lipoxidative) content” value is “normalized”. In [7], the food intake result is “no effect” and the weight entry was “no effect”. Moreover, in [8], the number of slips result is “full normalisation” and the “time used to cross the bar” value is reported as “full normalisation”. Besides, in series [9] (FIG. 16), the “number of reactive astrocytes” value is listed as “strikingly reduced to control levels” and the “number of reactive microglia” value was “strikingly reduced to control levels”. For the same compound, the “accumulation of markers of axonal damage (APP, synaptophysin in axonal swellings)” value in series [9] (FIG. 16, 17) was “strikingly reduced to control levels”.

`CC[C@H](C)C(=O)O[C@H]1C[C@@H](C)C=C2C=C[C@H](C)[C@H](CC[C@@H]3C[C@@H](O)CC(=O)O3)[C@H]21` [Lovastatin]: the effect in vitro entry in series [10] was “some effect”.

Turning to `CCCC(CCC)C(=O)O` [VPA, valproic acid], the adverse effects entry in the series on X-ALD patients is given as “adverse effects such as trembling”.
